Experimental data as given in patent publication US9393232B2 (BeiGene, Ltd., priority 2013, dated 2016).
Where two headings read alike, the source gives them in different places.

Target: Recombinant human BRD4(1-477) (Homo sapiens (Human), UniProt O60885)
Experiment: BRD4 TR-FRET biochemical IC50 assay
Format: binding
Details: tetra-acetylated histone peptide

SMILES	IC50 (TR-FRET, read-out: BRD4 IC50) [nM]	IC50 (BRD4 IC50, TR-FRET) [nM]
Cc1noc(C)c1-c1ccc2c(c1)C(O)(c1ccccc1)C(=O)N2 (single isomer, unassigned) [Compound 1.1b, 5-(3,5-dimethylisoxazol-4-yl)-3-hydroxy-3-phenylindolin-2-one]	7000	–
Cc1noc(C)c1-c1ccc2c(c1)C(O)(C1CCCCC1=O)C(=O)N2 (single isomer, unassigned) [Compound 1.30b, 5-(3,5-Dimethylisoxazol-4-yl)-3-hydroxy-3-(2-oxocyclohexyl)indolin-2-one]	650	–
Cc1noc(C)c1-c1ccc2c(c1)C(N[C@@H](CO)c1ccccc1)(c1ccccc1)C(=O)N2 (single isomer, unassigned) [Compound 2.7a]	> 10000	–
Cc1noc(C)c1-c1ccc2c(c1)C(N[C@@H](CO)c1ccccc1)(c1ccccc1)C(=O)N2 (single isomer, unassigned) [Compound 2.7b]	810	–
Cc1noc(C)c1-c1ccc2c(c1)C(N[C@H](CO)c1ccccc1)(c1ccccc1)C(=O)N2 (single isomer, unassigned) [Compound 2.8a]	510	–
Cc1noc(C)c1-c1ccc2c(c1)C(N[C@H](CO)c1ccccc1)(c1ccccc1)C(=O)N2 (single isomer, unassigned) [Compound 2.8b]	2200	–
Cc1noc(C)c1-c1ccc2c(c1)C(N[C@@H](CO)C(C)C)(c1ccccc1)C(=O)N2 (single isomer, unassigned) [Compound 2.11a]	3600	–
Cc1noc(C)c1-c1ccc2c(c1)C(N[C@H](CO)C(C)C)(c1ccccc1)C(=O)N2 (single isomer, unassigned) [Compound 2.12b]	3400	–
Cc1noc(C)c1-c1ccc2c(c1)C(NC[C@@H](C)O)(c1ccccc1)C(=O)N2 (single isomer, unassigned) [Compound 2.13a]	710	–
Cc1noc(C)c1-c1ccc2c(c1)C(NC[C@H](C)O)(c1ccccc1)C(=O)N2 (single isomer, unassigned) [Compound 2.14b]	610	–
Cc1noc(C)c1-c1ccc2c(c1)C(N[C@H](CO)C(C)C)(C1CCCCC1)C(=O)N2 (single isomer, unassigned) [Compound 2.19a]	> 10000	–
Cc1noc(C)c1-c1ccc2c(c1)C(N[C@@H](CO)C(C)C)(C1CCCCC1)C(=O)N2 (single isomer, unassigned) [Compound 2.20a]	5100	–
Cc1noc(C)c1-c1ccc2c(c1)C(N)(C1CCCCC1)C(=O)N2 (single isomer, unassigned) [Compound 2.37b, 3-Amino-3-cyclohexyl-5-(3,5-dimethylisoxazol-4-yl)indolin-2-one]	1100	–
COC(=O)[C@@H]1C[C@@H](O)CN1C1(c2ccccc2)C(=O)Nc2ccc(-c3c(C)noc3C)cc21 (single isomer, unassigned) [Compound 2.50b]	850	–
Cc1noc(C)c1-c1ccc2c(c1)C(c1ccccc1)(N1C[C@@H](O)C[C@H]1CO)C(=O)N2 (single isomer, unassigned) [Compound 2.51a]	1400	–
Cc1noc(C)c1-c1ccc2c(c1)C(c1ccccc1)(N1C[C@@H](O)C[C@H]1CO)C(=O)N2 (single isomer, unassigned) [Compound 2.51b]	67	–
Cc1noc(C)c1-c1ccc2c(c1)C(N[C@H](CO)Cc1cnc[nH]1)(c1ccccc1)C(=O)N2 (single isomer, unassigned) [Compound 2.57a, 5-(3,5-Dimethylisoxazol-4-yl)-3-((s)-1-hydroxy-3-(1h-imidazol-5-yl)propan-2-ylamino)-3-phenylindolin-2-one]	410	–
Cc1noc(C)c1-c1ccc2c(c1)C(N[C@H](CO)Cc1cnc[nH]1)(c1ccccc1)C(=O)N2 (single isomer, unassigned) [Compound 2.57b, 5-(3,5-Dimethylisoxazol-4-yl)-3-((s)-1-hydroxy-3-(1h-imidazol-5-yl)propan-2-ylamino)-3-phenylindolin-2-one]	41	–
Cc1noc(C)c1-c1ccc2c(c1)C(N)(c1ccc(F)cc1)C(=O)N2 (single isomer, unassigned) [Compound 2.59a, 3-amino-5-(3,5-dimethylisoxazol-4-yl)-3-(4-fluorophenyl)indolin-2-one]	4100	–
Cc1noc(C)c1-c1ccc2c(c1)C(N)(c1ccc(F)cc1)C(=O)N2 (single isomer, unassigned) [Compound 2.59b, 3-amino-5-(3,5-dimethylisoxazol-4-yl)-3-(4-fluorophenyl)indolin-2-one]	36	–
Cc1noc(C)c1-c1ccc2c(c1)C(O)(c1ccsc1)C(=O)N2 (single isomer, unassigned) [Compound 4.1a, 5-(3,5-Dimethylisoxazol-4-yl)-3-hydroxy-3-(thiophen-3-yl)indolin-2-one]	–	4900
COc1ccc(C2(O)C(=O)Nc3ccc(-c4c(C)noc4C)cc32)cc1OC (centres unmarked) [Compound 1.10, 3-(3,4-dimethoxyphenyl)-5-(3,5-dimethylisoxazol-4-yl)-3-hydroxyindolin-2-one]	1300	–

SMILES	IC50 (TR-FRET, read-out: BRD4 IC50) [nM]	IC50 (BRD4 IC50, TR-FRET) [nM]
Cc1noc(C)c1-c1ccc2c(c1)C(O)(c1cccc3ccccc13)C(=O)N2 (centres unmarked) [Compound 1.11, 5-(3,5-dimethylisoxazol-4-yl)-3-hydroxy-3-(naphthalen-1-yl)indolin-2-one]	2500	–
Cc1noc(C)c1-c1ccc2c(c1)C(O)(C#Cc1ccccc1)C(=O)N2 (centres unmarked) [Compound 1.12, 5-(3,5-dimethylisoxazol-4-yl)-3-hydroxy-3-(phenylethynyl)indolin-2-one]	2300	–
CCC1(O)C(=O)Nc2ccc(-c3c(C)noc3C)cc21 (centres unmarked) [Compound 1.20, 5-(3,5-dimethylisoxazol-4-yl)-3-ethyl-3-hydroxyindolin-2-one]	2300	–
C#CC1(O)C(=O)Nc2ccc(-c3c(C)noc3C)cc21 (centres unmarked) [Compound 1.21, 5-(3,5-dimethylisoxazol-4-yl)-3-ethynyl-3-hydroxyindolin-2-one]	1200	–
Cc1noc(C)c1-c1ccc2c(c1)C(O)(C(C)(C)C)C(=O)N2 (centres unmarked) [Compound 1.26, 3-tert-butyl-5-(3,5-dimethylisoxazol-4-yl)-3-hydroxyindolin-2-one]	3200	–
Cc1noc(C)c1-c1ccc2c(c1)C(O)(C(C)C)C(=O)N2 (centres unmarked) [Compound 1.27, 5-(3,5-dimethylisoxazol-4-yl)-3-hydroxy-3-isopropylindolin-2-one]	2800	–
C=C(C)CC1(O)C(=O)Nc2ccc(-c3c(C)noc3C)cc21 (centres unmarked) [Compound 1.28, 5-(3,5-dimethylisoxazol-4-yl)-3-hydroxy-2-(2-methylallyl)indolin-2-one]	3900	–
Cc1noc(C)c1-c1ccc2c(c1)C(O)(CCCc1ccccc1)C(=O)N2 (centres unmarked) [Compound 1.29, 5-(3,5-dimethylisoxazol-4-yl)-3-hydroxy-3-(3-phenylpropyl)indolin-2-one]	1600	–
CC(=O)OC1(c2ccccc2)C(=O)Nc2ccc(-c3c(C)noc3C)cc21 (centres unmarked) [Compound 1.34, 5-(3,5-Dimethylisoxazol-4-yl)-2-oxo-3-phenylindolin-3-yl acetate]	150	–
Cc1noc(C)c1-c1ccc2c(c1)C(NCCC(C)C)(C1CCCCC1)C(=O)N2 (centres unmarked) [Compound 2.25, 3-cyclohexyl-5-(3,5-dimethylisoxazol-4-yl)-3-(isopentylamino)indolin-2-one]	3700	–
Cc1noc(C)c1-c1ccc2c(c1)C(C1CCCCC1)(N1CCC[C@@H](O)C1)C(=O)N2 (stereo partly drawn) [Compound 2.30, 3-cyclohexyl-5-(3,5-dimethylisoxazol-4-yl)-3-((R)-3-hydroxypiperidin-1-yl)indolin-2-one]	61	–
Cc1noc(C)c1-c1ccc2c(c1)C(C1CCCCC1)(N1CCC(O)CC1)C(=O)N2 (centres unmarked) [Compound 2.31, 3-cyclohexyl-5-(3,5-dimethylisoxazol-4-yl)-3-(4-hydroxypiperidin-1-yl)indolin-2-one]	37	–
Cc1noc(C)c1-c1ccc2c(c1)C(C1CCCCC1)(N1CCCC(O)C1)C(=O)N2 (centres unmarked) [Compound 2.32, 3-cyclohexyl-5-(3,5-dimethylisoxazol-4-yl)-3-(3-hydroxypiperidin-1-yl)indolin-2-one]	60	–
Cc1noc(C)c1-c1ccc2c(c1)C(C1CCCCC1)(N1CC(O)C1)C(=O)N2 (centres unmarked) [Compound 2.33, 3-cyclohexyl-5-(3,5-dimethylisoxazol-4-yl)-3-(3-hydroxyazetidin-1-yl)indolin-2-one]	120	–
Cc1noc(C)c1-c1ccc2c(c1)C(N)(C1CCCCC1)C(=O)N2 (centres unmarked) [Compound 2.37, 3-amino-3-cyclohexyl-5-(3,5-dimethylisoxazol-4-yl)indolin-2-one]	93	–
Cc1noc(C)c1-c1ccc2c(c1)[C@@](N)(C1CCCCC1)C(=O)N2 [Compound 2.37a, (S)-3-amino-3-cyclohexyl-5-(3,5-dimethylisoxazol-4-yl)indolin-2-one]	54	–
Cc1noc(C)c1-c1ccc2c(c1)C(c1ccccc1)(N1CC[C@@H](NC(=O)OC(C)(C)C)C1)C(=O)N2 (some centres unmarked) [Compound 2.41, Tert-butyl (3r)-1-(5-(3,5-dimethylisoxazol-4-yl)-2-oxo-3-phenylindolin-3-yl)pyrrolidin-3-ylcarbamate]	440	–
Cc1noc(C)c1-c1ccc2c(c1)C(c1ccccc1)(N1CC[C@@H](N)C1)C(=O)N2 (stereo partly drawn) [Compound 2.42, 3-((R)-3-aminopyrrolidin-1-yl)-5-(3,5-dimethylisoxazol-4-yl)-3-phenylindolin-2-one]	27	–
Cc1noc(C)c1-c1ccc2c(c1)C(c1ccccc1)(N1CCC[C@@H](NC(=O)OC(C)(C)C)C1)C(=O)N2 (some centres unmarked) [Compound 2.43]	510	–
Cc1noc(C)c1-c1ccc2c(c1)C(c1ccccc1)(N1CCC[C@H](NC(=O)OC(C)(C)C)C1)C(=O)N2 (some centres unmarked) [Compound 2.44, Tert-butyl (3s)-1-(5-(3,5-dimethylisoxazol-4-yl)-2-oxo-3-phenylindolin-3-yl)piperidin-3-ylcarbamate]	1100	–
Cc1noc(C)c1-c1ccc2c(c1)C(c1ccccc1)(N1CCC[C@@H](N)C1)C(=O)N2 (stereo partly drawn) [Compound 2.45, 3-((R)-3-aminopiperidin-1-yl)-5-(3,5-dimethylisoxazol-4-yl)-3-phenylindolin-2-one]	26	–
CCOC(=O)CN1CCN(C2(c3ccccc3)C(=O)Nc3ccc(-c4c(C)noc4C)cc32)CC1 (centres unmarked) [Compound 2.47, Ethyl 2-(4-(5-(3,5-dimethylisoxazol-4-yl)-2-oxo-3-phenylindolin-3-yl)piperazin-1-yl)acetate]	54	–
